Read-outs that look alike come from different tables or passages of the source.
Biological target: T1, HDAC6 (Homo sapiens, UniProt Q9UBN7)
T1 sequence (Q9UBN7 1-1215): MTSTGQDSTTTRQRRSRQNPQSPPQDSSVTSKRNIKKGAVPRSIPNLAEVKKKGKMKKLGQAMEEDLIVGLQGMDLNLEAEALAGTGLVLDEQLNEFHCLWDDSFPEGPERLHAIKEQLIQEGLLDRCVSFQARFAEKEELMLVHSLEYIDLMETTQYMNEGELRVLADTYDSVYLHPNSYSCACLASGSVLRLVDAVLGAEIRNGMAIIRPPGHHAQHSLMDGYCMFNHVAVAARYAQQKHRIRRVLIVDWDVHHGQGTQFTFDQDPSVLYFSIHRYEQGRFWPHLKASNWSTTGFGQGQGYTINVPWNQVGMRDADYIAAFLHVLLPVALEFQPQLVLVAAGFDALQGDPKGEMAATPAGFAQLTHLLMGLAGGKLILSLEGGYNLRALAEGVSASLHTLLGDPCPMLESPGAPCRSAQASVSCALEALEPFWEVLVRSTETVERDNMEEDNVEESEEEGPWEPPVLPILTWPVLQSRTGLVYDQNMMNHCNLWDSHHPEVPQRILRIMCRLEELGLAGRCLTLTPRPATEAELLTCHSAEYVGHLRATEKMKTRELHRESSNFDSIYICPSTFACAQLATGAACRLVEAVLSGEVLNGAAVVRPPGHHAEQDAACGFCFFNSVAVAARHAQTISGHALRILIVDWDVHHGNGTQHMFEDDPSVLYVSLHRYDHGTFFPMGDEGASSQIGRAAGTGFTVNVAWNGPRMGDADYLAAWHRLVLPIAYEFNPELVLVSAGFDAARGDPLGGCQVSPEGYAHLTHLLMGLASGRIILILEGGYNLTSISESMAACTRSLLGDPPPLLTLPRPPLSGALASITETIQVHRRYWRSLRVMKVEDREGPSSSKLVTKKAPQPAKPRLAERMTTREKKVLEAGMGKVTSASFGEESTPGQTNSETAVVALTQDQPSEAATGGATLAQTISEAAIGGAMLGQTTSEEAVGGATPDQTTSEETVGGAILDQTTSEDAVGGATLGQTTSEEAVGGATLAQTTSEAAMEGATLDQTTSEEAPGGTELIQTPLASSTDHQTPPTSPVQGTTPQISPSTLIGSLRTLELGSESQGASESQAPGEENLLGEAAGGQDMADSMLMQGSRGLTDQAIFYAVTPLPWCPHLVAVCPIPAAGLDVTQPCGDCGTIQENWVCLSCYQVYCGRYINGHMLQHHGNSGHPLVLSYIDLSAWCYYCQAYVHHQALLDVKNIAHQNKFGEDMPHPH
Experiment: Chemoproteomic competition pulldown assay
Type: binding
Parameters: endogenous in cells; host or cells: SW620, MV4-11, A549 lysates
Procedure: To identify proteins directly bound by lipoic acid, we employed a chemoproteomic competition assay. Briefly, (R/S)-LA was immobilized on sepharose beads via an amidation reaction to form an affinity matrix (abbreviated as iL; Fig. 1a). This affinity matrix can be incubated with cell lysate to pull down potential LA or LM target proteins and identify these targets via bottom-up proteomics. In a competition assay, free LA or LM were incubated with lysate at different concentrations before pulling down and quantifying target proteins. […] (Fig. 1b, see “Methods” for details). […] The lysate buffer used in this assay contains 1 mM DTT to mimic the intracellular reductive milieu and to reduce lipoic acid and LM. […] Additional competition assays performed in lung adenocarcinoma cell A549 lysate also identified HDAC1, HDAC2, and HDAC6 as targets (Supplementary Fig. 1b). Amongst the three cell lines tested, HDACs were the only confidently identified targets across the 1500–3000 proteins quantified in these assays. […] We validated the results by analogous pulldown competition assays using two other affinity matrices prepared via the immobilization of either the HDAC inhibitor Quisinostat (iQ) and an analog of the class IIa HDAC inhibitor Bürli’s 31[14] (iC)[12]. We have previously shown that these affinity matrices specifically bind to the active sites of HDACs and have used them for HDACi selectivity profiling. Indeed, binding of (R/S)-LA and (R/S)-LM to HDAC1, HDAC2, HDAC3, HDAC6, and, to a lesser extent, HDAC8 was confirmed in these assays (Supplementary Fig. 1c, d). No binding to class IIa HDACs or the recently discovered common HDAC inhibitor off-target MBLAC2 was observed (Supplementary Fig. 1e)[12]. […] This observation might reflect electrostatic repulsion between the HDAC10 active site gate-keeper glutamic acid residues[15],[16] and the terminal carboxylic acid of LA.
To assess the degree of protein depletion from lysates by the affinity matrix, a second pulldown (PDPD) with fresh beads was performed using the unbound protein fraction from the vehicle control flow through. The beads were washed (1 × 1 mL of lysis buffer without inhibitors and only 0.4% Igepal, 2 × 2 mL of lysis buffer without inhibitors and only 0.2% Igepal), and captured proteins were denatured with 8 M urea buffer, alkylated with 55 mM chloroacetamide and digested with Trypsin according to standard procedures. The resulting peptides were desalted on a C18 filter plate (Sep-Pak® tC18 µElution Plate, Waters), vacuum dried, and stored at −20 °C until LC–MSMS measurement.
For the competition assays, relative binding was calculated based on the protein intensity ratio to the DMSO control for every single inhibitor concentration. EC50 values were derived from a four-parameter log-logistic regression with variable slope (constrain: bottom > 0). The obtained EC50 values were multiplied with a protein-dependent correction factor (cf), resulting in the apparent Kd value (Kd^app). The correction factor is determined by calculating the ratio of the protein intensity of two consecutive pulldowns of the vehicle control sample[13]. Targets of the inhibitors were annotated manually according to published procedures[12],[46],[47]. […] Additionally, the number of unique peptides and MSMS counts per condition were taken into account. Positive target binding across several independent experiments performed with different cell lysates further substantiated our confidence for a true positive drug-target binding event.

[1] = iL, SW620, read-out: pKdapp (converted)
[2] = iQ, SW620, read-out: pKdapp (converted)
[3] = iQ, SW620 lysate, log10 M -3.52288
[4] = iQ, SW620 lysate, log10 M -4.52288
[5] = iQ, SW620 lysate, log10 M -5.52288
[6] = iQ, SW620 lysate, log10 M -6.52288

O=C(O)CCCCC1CCSS1 (racemic) [(R/S)-LA, (R/S)-lipoic acid]
Kd (iL, A549, read-out: pKdapp (converted)): 5.01 µM | relative binding vs DMSO (iL, A549 lysate, log10 M -4): 0.05504 | relative binding vs DMSO (iL, A549 lysate, log10 M -4.52288): 0.1518 | relative binding vs DMSO (iL, A549 lysate, log10 M -5): 0.3845 | relative binding vs DMSO (iL, A549 lysate, log10 M -5.52288): 0.7285 | relative binding vs DMSO (iL, A549 lysate, log10 M -6): 0.9189 | relative binding vs DMSO (iL, A549 lysate, log10 M -6.52288): 1.088 | relative binding vs DMSO (iL, A549 lysate, log10 M -7.52288): 1.108 | relative binding vs DMSO (iL, A549 lysate, log10 M -8): 1.195 | relative binding vs DMSO (iL, A549 lysate, log10 M -8.52288): 0.9886 | Kd [1]: 10 µM | relative binding vs DMSO (iL, SW620 lysate, log10 M -3.52288): 0.1052 | relative binding vs DMSO (iL, SW620 lysate, log10 M -4): 0.1618 | relative binding vs DMSO (iL, SW620 lysate, log10 M -4.52288): 0.8697 | relative binding vs DMSO (iL, SW620 lysate, log10 M -5): 1.623 | relative binding vs DMSO (iL, SW620 lysate, log10 M -5.52288): 0.9452 | relative binding vs DMSO (iL, SW620 lysate, log10 M -6): 1.514 | relative binding vs DMSO (iL, SW620 lysate, log10 M -6.52288): 0.6952 | relative binding vs DMSO (iL, SW620 lysate, log10 M -7): 1.008 | Kd [2]: 10 µM | relative binding vs DMSO [3]: 0.2137 | relative binding vs DMSO (iQ, SW620 lysate, log10 M -4): 0.2383 | relative binding vs DMSO [4]: 0.4233 | relative binding vs DMSO (iQ, SW620 lysate, log10 M -5): 0.664 | relative binding vs DMSO [5]: 0.8619 | relative binding vs DMSO (iQ, SW620 lysate, log10 M -6): 0.8804 | relative binding vs DMSO [6]: 1.0379 | relative binding vs DMSO (iQ, SW620 lysate, log10 M -7): 0.9144

NC(=O)CCCCC1CCSS1 (racemic) [(R/S)-LM, (R/S)-lipoamide]
relative binding vs DMSO (iL, MV4-11 lysate, log10 M -3.52288): 0.06003 | relative binding vs DMSO (iL, MV4-11 lysate, log10 M -4): 0.1375 | relative binding vs DMSO (iL, MV4-11 lysate, log10 M -4.52288): 0.3195 | relative binding vs DMSO (iL, MV4-11 lysate, log10 M -5): 0.763 | relative binding vs DMSO (iL, MV4-11 lysate, log10 M -5.52288): 0.7012 | relative binding vs DMSO (iL, MV4-11 lysate, log10 M -6): 0.776 | relative binding vs DMSO (iL, MV4-11 lysate, log10 M -6.52288): 0.9127 | relative binding vs DMSO (iL, MV4-11 lysate, log10 M -7): 0.9147 | Kd (iL, MV4-11 lysate, read-out: Kd app): 21 µM | Kd (iL, MV411, read-out: pKdapp (converted)): 10 µM | Kd [1]: 15.8 µM | Kd [2]: 10 µM | relative binding vs DMSO [3]: 0.1855 | relative binding vs DMSO (iQ, SW620 lysate, log10 M -4): 0.2172 | relative binding vs DMSO [4]: 0.4129 | relative binding vs DMSO (iQ, SW620 lysate, log10 M -5): 0.6644 | relative binding vs DMSO [5]: 0.9409 | relative binding vs DMSO (iQ, SW620 lysate, log10 M -6): 1.062 | relative binding vs DMSO [6]: 0.8866 | relative binding vs DMSO (iQ, SW620 lysate, log10 M -7): 0.9139

— PMC10272112 (Nature Communications, 2023)
